Data on ten compounds can be found in PubChem BioAssay (NCI).

Test systems include 786-0 renal; NCI-H226 lung; NCI-H23 lung; OVCAR-8 ovarian; SK-MEL-28 melanoma; SW-620 colon; U251 CNS; A498 renal; HOP-62 NSCLC; SK-MEL-5 melanoma.
Common to all, as to assay: DTP human tumour cell line panel, 48 h

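Growth conditions: 96-well plates. Treatment: test compound, 48 hours, 5 concentrations. Analysis: linear interpolation between bracketing concentrations; unreached endpoints set to highest concentration. GI50: concentration for 50% inhibition of growth. The concentration for full growth arrest is given as TGI.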

As usually defined, the TGI is the concentration at which net growth stops. What is called GI50 is the concentration giving 50% growth inhibition.

On to `CC(Nc1ccc(S(=O)(=O)N=C(N)N)cc1)c1c2ccccc2nc2ccccc12` (stereo not given), for which the TGI was above 100 µM with 786-0 renal; 80.4 µM with NCI-H226 lung; 88.9 µM in the assay on NCI-H23 lung; 76.8 µM with OVCAR-8 ovarian; above 100 µM in the assay on SK-MEL-28 melanoma; above 100 µM in the assay on SW-620 colon. The compound also yielded a total growth inhibition concentration (TGI) with U251 CNS above 100 µM.

As to `CC(C)(C)c1cc(-n2c(-c3ccc(Cl)cc3)nc3cc(C(=O)Nc4ccc(Cl)cc4)ccc32)n[nH]1`, the GI50 was 6.18 µM in the assay with 786-0 renal; 1.99 µM in the assay with A498 renal; 14.1 µM with HOP-62 NSCLC; 10.4 µM in the assay with NCI-H226 lung; 4.86 µM in the assay on NCI-H23 lung; 9.03 µM with OVCAR-8 ovarian. In addition, the GI50 is 64.2 µM in the assay with SK-MEL-28 melanoma and 6.63 µM with U251 CNS. For the same compound, the TGI in the assay with 786-0 renal is above 100 µM; in the assay with A498 renal, above 100 µM; with HOP-62 NSCLC it was 36.9 µM; in the assay with NCI-H226 lung it was above 100 µM; in the assay on NCI-H23 lung, above 100 µM; in the assay on OVCAR-8 ovarian it was above 100 µM. The total growth inhibition concentration (TGI) with SK-MEL-28 melanoma and in the assay on U251 CNS was above 100 µM in each case.

In the case of `CC(=O)OC(C)(C)/C(C)=C/C(=O)O[C@H]1C(=O)O[C@@H]2C[C@H]3[C@H](C)C(=O)C(O[C@@H]4O[C@H](CO)[C@@H](O)[C@H](O)[C@H]4O)=C[C@]3(C)[C@H]3[C@@H](O)[C@H](O)[C@@]4(C(=O)O)OC[C@]32[C@@H]14`, the GI50 in the assay on 786-0 renal was above 100 µM; in the assay on A498 renal it was above 100 µM; with HOP-62 NSCLC, 69.1 µM; in the assay with NCI-H226 lung it was 72.8 µM; with NCI-H23 lung it was above 100 µM; in the assay on OVCAR-8 ovarian it was above 100 µM. Moreover, the GI50 in the assay with SW-620 colon was above 100 µM. Further, the TGI in the assay with 786-0 renal, in the assay on A498 renal, in the assay on HOP-62 NSCLC, in the assay with NCI-H226 lung, in the assay on NCI-H23 lung and in the assay with OVCAR-8 ovarian was above 100 µM throughout. Besides, the TGI in the assay with SK-MEL-28 melanoma, in the assay with SW-620 colon and in the assay with U251 CNS was above 100 µM each time.

In the case of `COC(=O)C(C(=O)C(=O)Nc1ccc([N+](=O)[O-])cc1[N+](=O)[O-])c1nc2ccc(Cl)cc2[nH]c1=O` (stereo not given), the TGI in the assay on 786-0 renal, in the assay with A498 renal, in the assay with HOP-62 NSCLC, in the assay on NCI-H226 lung, in the assay on NCI-H23 lung and in the assay on OVCAR-8 ovarian was above 100 µM in each case. Besides, the TGI with SK-MEL-28 melanoma, in the assay on SK-MEL-5 melanoma and with SW-620 colon was above 100 µM each time.

As to `O=C(Nc1ccc(Cl)c(Cl)c1)Nc1c(Oc2ccc(Cl)c(Cl)c2)ccc(Cl)c1S(=O)(=O)O`, the GI50 is 3.05 µM in the assay on 786-0 renal; 1.53 µM in the assay with A498 renal; 3.91 µM in the assay on NCI-H226 lung; 2.52 µM in the assay on NCI-H23 lung; 3.7 µM in the assay with OVCAR-8 ovarian; 4.05 µM with SK-MEL-28 melanoma. For the same compound, the values for the GI50 in the assay on SK-MEL-5 melanoma, in the assay on SW-620 colon and in the assay on U251 CNS were 1.33 µM, 1.27 µM and 3.16 µM, respectively. Besides, the TGI with 786-0 renal was 29.8 µM; in the assay on A498 renal, 6.26 µM; in the assay on NCI-H226 lung, above 100 µM; in the assay with NCI-H23 lung it was above 100 µM; with OVCAR-8 ovarian, above 100 µM; with SK-MEL-28 melanoma it was above 100 µM. In addition, the results for the TGI with SK-MEL-5 melanoma, in the assay with SW-620 colon and with U251 CNS were 3.11 µM, above 100 µM and above 100 µM, respectively.

In the case of `Cc1ccc(S(=O)(=O)NC2(C=O)CCCC3CCCCC32)cc1` (stereo not given), the TGI in the assay on 786-0 renal, with A498 renal, with HOP-62 NSCLC, in the assay with NCI-H226 lung, in the assay on OVCAR-8 ovarian and in the assay with SK-MEL-28 melanoma was above 100 µM each time. For the same compound, the TGI in the assay with SK-MEL-5 melanoma, with SW-620 colon and with U251 CNS was above 100 µM in each case.

`S=C(Nc1ccc(-c2nc3ccccc3[nH]2)cc1)Nc1ccc(-c2nc3ccccc3[nH]2)cc1`: the GI50 is 89.7 µM in the assay with 786-0 renal; above 100 µM with HOP-62 NSCLC; 39.2 µM in the assay on NCI-H226 lung; 70.3 µM in the assay with NCI-H23 lung; 59.6 µM in the assay on OVCAR-8 ovarian; above 100 µM in the assay on SK-MEL-28 melanoma. Also, the GI50 with SK-MEL-5 melanoma is 37.1 µM; in the assay on SW-620 colon, above 100 µM; in the assay on U251 CNS, above 100 µM. Besides, the total growth inhibition concentration (TGI) with 786-0 renal, in the assay on HOP-62 NSCLC, in the assay with NCI-H226 lung, in the assay on NCI-H23 lung, in the assay with OVCAR-8 ovarian and in the assay with SK-MEL-28 melanoma was above 100 µM in each case. For the same compound, the TGI in the assay on SK-MEL-5 melanoma, in the assay with SW-620 colon and with U251 CNS was above 100 µM each time.

For the compound `Oc1ccc(C(c2ccc(O)cc2)c2ccc(O)cc2)cc1`, the TGI in the assay with 786-0 renal is 34.8 µM; with A498 renal, 34.5 µM; with NCI-H226 lung it was 67.3 µM; with NCI-H23 lung it was 45.7 µM; in the assay on OVCAR-8 ovarian, 32.6 µM; with SK-MEL-28 melanoma, 45 µM. The total growth inhibition concentration (TGI) was 30.6 µM in the assay on SK-MEL-5 melanoma, 88.1 µM in the assay with SW-620 colon and 83.7 µM in the assay with U251 CNS.

As to `CO/N=C(\C)c1ccc(Nc2cc(-c3ccccc3)nc3ccc(OC)cc23)cc1`, the GI50 in the assay with 786-0 renal was 2.17 µM; in the assay with NCI-H226 lung it was 2.25 µM; in the assay on NCI-H23 lung it was 2.52 µM; in the assay with SK-MEL-28 melanoma it was 29.4 µM; in the assay on SK-MEL-5 melanoma, 1.77 µM; in the assay with SW-620 colon, 3.4 µM. Also, the GI50 in the assay on U251 CNS was 2.05 µM. The TGI was 4.5 µM in the assay on 786-0 renal; 5.63 µM in the assay with NCI-H226 lung; 10.3 µM in the assay with NCI-H23 lung; above 100 µM in the assay on SK-MEL-28 melanoma; 3.31 µM with SK-MEL-5 melanoma; 11.9 µM in the assay with SW-620 colon. In addition, in the assay on U251 CNS, the TGI came to 4.79 µM.

For `O=c1ncc(F)cn1C1OC(CO)C(O)C1O` (stereo not given), the concentration for total growth inhibition (TGI) in the assay with 786-0 renal, in the assay with A498 renal, with HOP-62 NSCLC, with NCI-H226 lung, with NCI-H23 lung and in the assay with OVCAR-8 ovarian was above 100 µM in each case. The TGI was above 46.4 µM in the assay on SK-MEL-28 melanoma, above 100 µM with SW-620 colon and above 56.6 µM with U251 CNS.
